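Tested at 5 concentrations; 48 h exposure; 96-well plates; endpoints linearly interpolated, else capped at highest concentration. Abbreviation: GI50, concentration required for 50% inhibition of growth.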 The source made the active and inactive calls. No stated cut-off is given here; in the data, active = GI50 up to about 1.1 µM and inactive = higher.
Assays:
Test in all cases: NCI anticancer screen, dose series, 48 h
IGROV-1 = tested on: IGROV-1
TK-10 = tested on: TK-10
CCRF-CEM = tested on: CCRF-CEM
HL-60 = tested on: HL-60
PC-3 = tested on: PC-3
COLO 205 = tested on: COLO 205
HOP-62 = tested on: HOP-62
MCF7 = tested on: MCF7
786-0 = tested on: 786-0
RPMI-8226 = tested on: RPMI-8226
MDA-N = tested on: MDA-N
UACC-257 = tested on: UACC-257
SW-620 = tested on: SW-620
SK-OV-3 = tested on: SK-OV-3
SNB-19 = tested on: SNB-19
HT-29 = tested on: HT-29
SK-MEL-2 = tested on: SK-MEL-2
A498 = tested on: A498
NCI-H522 = tested on: NCI-H522
NCI-H460 = tested on: NCI-H460

Row | SMILES | GI50 (IGROV-1) | GI50 (TK-10) | GI50 (CCRF-CEM) | GI50 (HL-60) | GI50 (PC-3) | GI50 (COLO 205) | GI50 (HOP-62) | GI50 (MCF7) | GI50 (786-0) | GI50 (RPMI-8226) | GI50 (MDA-N) | GI50 (UACC-257) | GI50 (SW-620) | GI50 (SK-OV-3) | GI50 (SNB-19) | GI50 (HT-29) | GI50 (SK-MEL-2) | GI50 (A498) | GI50 (NCI-H522) | GI50 (NCI-H460)
1 | c1ccc2cc3c(cc2c1)nc1ccccn13 | > 100 µM (inactive) | > 100 µM (inactive) | > 100 µM (inactive) | > 100 µM (inactive) | > 100 µM (inactive) | > 100 µM (inactive) | > 100 µM (inactive) | 28.2 µM (inactive) | > 100 µM (inactive) | > 100 µM (inactive) | > 100 µM (inactive) | > 100 µM (inactive) | > 100 µM (inactive) | 77.3 µM (inactive) | > 100 µM (inactive) |  |  |  |  | 
2 | CCOc1cc2c(c(OCC)c1O)CC[C@@H]1[C@@H]2CC[C@]2(C)[C@@H](O)CC[C@@H]12 | 6.76 µM (inactive) | 25.3 µM (inactive) | 1.7 µM (inactive) | 0.297 µM (active) |  | 20.5 µM (inactive) | 1.32 µM (inactive) | 0.505 µM (active) | 2.45 µM (inactive) | 2.74 µM (inactive) | 0.234 µM (active) |  | 1.22 µM (inactive) | 4.75 µM (inactive) | 1.25 µM (inactive) | 8.38 µM (inactive) | 14 µM (inactive) | 5.21 µM (inactive) | 0.61 µM (active) | 
3 | Cc1ccc(/C=N/Nc2ncccn2)s1 | > 100 µM (inactive) | > 100 µM (inactive) | > 100 µM (inactive) |  | > 100 µM (inactive) | > 100 µM (inactive) | > 100 µM (inactive) | > 100 µM (inactive) | > 100 µM (inactive) | > 100 µM (inactive) | > 100 µM (inactive) | > 100 µM (inactive) | > 100 µM (inactive) | > 100 µM (inactive) | > 100 µM (inactive) | > 100 µM (inactive) | > 100 µM (inactive) |  | > 100 µM (inactive) | 
4 | CN1CCN(C(=S)N(C(=O)c2ccco2)C2CCCCC2)CC1 | > 100 µM (inactive) | > 100 µM (inactive) | > 100 µM (inactive) | > 10 µM (inactive) |  | > 100 µM (inactive) |  | > 100 µM (inactive) | > 100 µM (inactive) | > 100 µM (inactive) | > 100 µM (inactive) | > 100 µM (inactive) | > 100 µM (inactive) |  | > 100 µM (inactive) | > 100 µM (inactive) | > 100 µM (inactive) |  | > 100 µM (inactive) | > 100 µM (inactive)
5 | CCN(CCN(CC)C(=O)Nc1ccccc1)C(=O)Nc1ccccc1 | > 100 µM (inactive) | > 100 µM (inactive) | > 100 µM (inactive) | > 100 µM (inactive) | > 100 µM (inactive) | > 100 µM (inactive) | > 100 µM (inactive) | > 100 µM (inactive) | > 100 µM (inactive) | > 100 µM (inactive) |  | > 100 µM (inactive) | > 100 µM (inactive) | > 100 µM (inactive) | > 100 µM (inactive) | > 100 µM (inactive) | > 100 µM (inactive) | > 100 µM (inactive) | > 100 µM (inactive) | > 100 µM (inactive)
6 | C[C@@H](c1ccccc1)n1c(N)c(-c2ccccn2)c2ccc([N+](=O)[O-])cc2c1=O |  | 31.2 µM (inactive) | 32.1 µM (inactive) | 52.4 µM (inactive) | 17.5 µM (inactive) | 38.2 µM (inactive) |  |  | > 100 µM (inactive) |  | 88.7 µM (inactive) | 22.2 µM (inactive) | > 100 µM (inactive) |  | 35.2 µM (inactive) | > 100 µM (inactive) | > 100 µM (inactive) | 18.5 µM (inactive) | 48.2 µM (inactive) | 43.1 µM (inactive)
7 | CC1CCC2(OC1)OC1CC3C4CCC5CC(O)CCC5(C)C4CC(=O)OC3(C)C1C2C (centres undefined) | > 100 µM (inactive) | > 100 µM (inactive) | > 100 µM (inactive) | > 100 µM (inactive) |  | > 100 µM (inactive) | > 100 µM (inactive) |  | > 100 µM (inactive) | > 100 µM (inactive) |  | > 100 µM (inactive) | > 100 µM (inactive) | > 100 µM (inactive) | > 100 µM (inactive) | > 100 µM (inactive) | > 100 µM (inactive) | > 100 µM (inactive) | > 100 µM (inactive) | > 100 µM (inactive)
8 | COc1cc2c(c(OC)c1OC)-c1ccc(SC)c(=O)cc1[C@@H](NCc1ccccc1[N+](=O)[O-])CC2 | 0.0135 µM (active) | 0.061 µM (active) | 0.00532 µM (active) | 0.00313 µM (active) |  | 0.0082 µM (active) | 0.0174 µM (active) |  | 0.0246 µM (active) | 0.00671 µM (active) |  | 0.00561 µM (active) | 0.00333 µM (active) | 0.0041 µM (active) | 0.0246 µM (active) | 0.00391 µM (active) | 0.0217 µM (active) | 0.00417 µM (active) | 0.011 µM (active) | 0.0168 µM (active)
9 | CC12CCCCC1=[N+]([O-])C(C)(C)N2O (centres undefined) | > 100 µM (inactive) | > 100 µM (inactive) | > 100 µM (inactive) |  | > 100 µM (inactive) | > 100 µM (inactive) | > 100 µM (inactive) | > 100 µM (inactive) | > 100 µM (inactive) | > 100 µM (inactive) | > 100 µM (inactive) | > 100 µM (inactive) | > 100 µM (inactive) | > 100 µM (inactive) | > 100 µM (inactive) | > 100 µM (inactive) | > 100 µM (inactive) |  |  | > 100 µM (inactive)
10 | O=C(O)c1cc2ccccc2c(/N=N/c2ccc(S(=O)(=O)Nc3ncccn3)cc2)c1O | > 100 µM (inactive) | > 100 µM (inactive) | > 100 µM (inactive) | > 100 µM (inactive) | > 100 µM (inactive) | > 100 µM (inactive) | > 100 µM (inactive) | > 100 µM (inactive) | > 100 µM (inactive) | > 100 µM (inactive) |  | > 100 µM (inactive) | > 100 µM (inactive) | > 100 µM (inactive) | > 100 µM (inactive) | > 100 µM (inactive) | > 100 µM (inactive) |  | > 100 µM (inactive) | > 100 µM (inactive)
11 | [N-]=[N+]=NI1OC(C(F)(F)F)(C(F)(F)F)c2ccccc21 | 16.3 µM (inactive) | 16.5 µM (inactive) | 7.85 µM (inactive) | 15.4 µM (inactive) | 15.7 µM (inactive) | 13.8 µM (inactive) | 15.1 µM (inactive) | 12.9 µM (inactive) | 15.5 µM (inactive) | 12.1 µM (inactive) |  | 24.5 µM (inactive) | 19.1 µM (inactive) | 21.5 µM (inactive) | > 100 µM (inactive) | 17.3 µM (inactive) | 16 µM (inactive) | 17 µM (inactive) | 5.83 µM (inactive) | 
12 | CN(C)c1nc(NN)c2c(-c3ccccc3)c(-c3ccccc3)oc2n1 | > 100 µM (inactive) | > 100 µM (inactive) | 52.5 µM (inactive) |  |  | > 100 µM (inactive) |  | > 100 µM (inactive) | > 100 µM (inactive) | > 100 µM (inactive) |  | > 100 µM (inactive) | > 100 µM (inactive) | > 100 µM (inactive) | > 100 µM (inactive) | 98.4 µM (inactive) |  | > 100 µM (inactive) | 68.2 µM (inactive) | 
13 | O=C(CC(C(=O)c1ccsc1)c1cccs1)c1cccs1 (centres undefined) | > 100 µM (inactive) | > 100 µM (inactive) | 43.1 µM (inactive) | 56.8 µM (inactive) |  | 94.8 µM (inactive) | > 100 µM (inactive) |  | > 100 µM (inactive) | 33.1 µM (inactive) |  | 51.4 µM (inactive) | > 100 µM (inactive) | > 100 µM (inactive) | > 100 µM (inactive) | 82.2 µM (inactive) | > 100 µM (inactive) | 66.4 µM (inactive) | 33.4 µM (inactive) | 49 µM (inactive)
14 | COc1cccc(NC(=O)C(C)(C)C)c1C=O | 56.1 µM (inactive) | 35 µM (inactive) | 32.1 µM (inactive) | 26.7 µM (inactive) |  | > 100 µM (inactive) | > 100 µM (inactive) |  | > 100 µM (inactive) | 19.4 µM (inactive) |  | 65.8 µM (inactive) | 34.7 µM (inactive) | 82.8 µM (inactive) | 51.2 µM (inactive) | 40.7 µM (inactive) | 73.6 µM (inactive) | > 100 µM (inactive) | 55.2 µM (inactive) | > 100 µM (inactive)
15 | O=C(NNC(=S)Nc1ccc(Cl)cc1)c1cc(-c2ccccc2)nc2ccccc12 | 5.96 µM (inactive) | 7.19 µM (inactive) | 1.66 µM (inactive) |  | 3.42 µM (inactive) | 4.99 µM (inactive) | 6.12 µM (inactive) | 4.01 µM (inactive) | 4.71 µM (inactive) | 4.08 µM (inactive) | 3.25 µM (inactive) | 5.55 µM (inactive) | 4.91 µM (inactive) | 7.82 µM (inactive) | 6.89 µM (inactive) | 8.73 µM (inactive) | 2.56 µM (inactive) |  | 5.64 µM (inactive) | 6.22 µM (inactive)
16 | CSC(=S)NNC(=O)c1ccncc1 | 14.6 µM (inactive) | 26.7 µM (inactive) | 18.9 µM (inactive) | 20 µM (inactive) |  | 34.9 µM (inactive) | 20.8 µM (inactive) |  | 16.2 µM (inactive) | 22.3 µM (inactive) |  | 23.8 µM (inactive) | 11.3 µM (inactive) | 28.8 µM (inactive) | 22.7 µM (inactive) | 18.2 µM (inactive) | 17.4 µM (inactive) | 70 µM (inactive) | 16.9 µM (inactive) | 46.6 µM (inactive)
